# According to patent publication US11332716B2, “Methods and compositions for producing pancreatic beta cells” (The Regents of the University of California, priority 2015, dated 2022):
# How the values were obtained:
# [1] = tested on: definitive endoderm-like cells (DELCs); test: Induction of pancreatic progenitor-like cells from DELCs (Pdx1/Nkx6.1 staining); type: cell-based, mouse; details: 400-compound collection; confirmed in larger-well cultures
# Protocol: At the end of treatment, lineage specific markers were analyzed by immunostaining and/or real-time.
# Primary antibodies used were Sox17 (R&D), Foxa2 (Millipore), Pdx1 (R&D), Hnf6 (Santa Cruz), Pax6 (Covance), Sox9 (Santa Cruz), Nkx6.1 (Developmental Studies Hybridoma Bank), Insulin (Dako), Glucagon (Sigma), Somatostatin (Abeam), Amylase (Abeam), and CK19 (Abcam). Nuclei were visualized by DAPI (Sigma-Aldrich) staining Images were captured using a Nikon Eclipse TE2000-U microscope.
# An available drug collection of 400 compounds in the 48well format was screened to identify small molecules that induce high percentages of Pdx 1^+/NKx6.1^+ cells in DELC populations. Med-III medium (DMEM supplemented with 1 kB27, 2 mM GLUTAMAX™) was used as the basal condition and double staining of Pdx1 and Nkx 6.1 at 4 days post-induction was used as the readout.
# [2] = tested on: pancreatic endodermal progenitor cells (cPE cells); test: Maturation of cPE cells into C-peptide positive cells, chemical screen; details: added individually to basal pancreatic differentiation media
# [3] = tested on: pancreatic endodermal progenitor (cPE) cells; test: Protocol 2 maturation of cPE cells into cPB cells (INSULIN mRNA, C-peptide cells)
# p38 MAPK = p38 MAPK (Homo sapiens, UniProt Q16539); details: read-out: IC50 for p38 MAPK; cited from earlier work
# Chain of p38 MAPK (Q16539 whole entry): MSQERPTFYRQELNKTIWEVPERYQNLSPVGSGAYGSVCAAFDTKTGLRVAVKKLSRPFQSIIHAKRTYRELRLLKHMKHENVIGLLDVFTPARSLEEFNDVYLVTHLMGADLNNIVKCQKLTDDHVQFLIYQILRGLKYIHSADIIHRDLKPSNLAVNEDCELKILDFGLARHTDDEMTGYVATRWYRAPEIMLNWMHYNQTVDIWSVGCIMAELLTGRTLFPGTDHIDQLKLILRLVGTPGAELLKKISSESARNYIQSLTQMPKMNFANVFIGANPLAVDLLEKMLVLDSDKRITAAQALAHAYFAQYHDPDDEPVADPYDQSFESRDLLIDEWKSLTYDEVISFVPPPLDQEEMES
# [4] = tested on: Dox-inducible secondary mouse embryonic fibroblasts (MEFs); test: Pdx1+/Nkx6.1+ colony number on day 16 after small molecules in first/second step; details: 1 μM Bix-01294 D0 to D6; 280 μM pVc D0 to D12; readout day 16
# [5] = tested on: Dox-inducible secondary mouse embryonic fibroblasts (MEFs); test: Direct reprogramming of fibroblasts into definitive endoderm-like cells (Sox17/Foxa2); type: cell-based; details: treatment in first two steps
# Protocol: To extend and test the iPSC-factor-based lineage-specific reprogramming paradigm to endoderm, a two-step process was first devised to directly reprogram secondary MEF cells into definitive endoderm-like cells (DELCs). The first step (step I) involved culturing secondary MEF cells in media (Med-I) that is supplemented with 4 μg/ml Dox to initiate epigenetic activation. The second step (step II) was culturing the epigenetically activated cells in Med-II supplemented with 50 ng/ml Activin A and 1 mM LiCl (hereafter referred to as Activin/Li). […] Hereafter these Sox17/Foxa2 double-positive cells are referred to as definitive endoderm-like cells (DELCs).
# To test this hypothesis, conditions were evaluated in which definitive endoderm induction factors (Activin/Li) were added to fibroblasts either after (Approach-I) or during (Approach II) iPSC factor expression, using Sox17 and Foxa2 expression as a measure of DELC induction (FIG. 1A).
# [6] = tested on: pancreatic progenitor-like cells (PPLCs); test: Maturation of PPLCs into pancreatic-like cells (insulin/Pdx1, day 25); details: 5 μM SB203580 or 280 μM pVc used individually
# [7] = tested on: MKN45, U87MG, MDA-MB-231, COLO205, and A549 tumor cells; details: 20 mg/kg-60 mg/kg; c-Met-driven or non-c-Met-driven xenografts; cited from earlier work
# γ-secretase = details: read-out: IC50 for total β-amyloid; cited from earlier work
# presenilase = details: higher concentrations (20-400 μM); cited from earlier work
# [8] = tested on: HDAC activity in HeLa extracts; details: read-out: IC50 for inhibition of HDAC activity; cited from earlier work
# [9] = tested on: histone deacetylases (HDACs); details: isoform not stated; read-out: IC50 (histone deacetylase); cited from earlier work
# [10] = tested on: Src-dependent cell proliferation; details: cited from earlier work
# [11] = tested on: Human foreskin fibroblasts (CRL-2097); test: Conversion of human fibroblasts into definitive endodermal progenitor cells (FOXA2 positive colonies); details: Parnate, RG108 condition
# [12] = tested on: MEL1 INS GFP/W hESC spheres; test: hESC suspension differentiation, flow cytometry of PDX1 and NKX6.1; type: cell-based, human; details: day 9.5
# Description: Treatments consisted of combinations of Cyclopamine (C), Noggin (N), and retinoic acid (R) during days 6-8, followed by subdivision of each condition into three treatment groups during day 9-9.5. Group 1) continuation of day 6-8 treatment; Group 2) treatment with EGF and KGF (EK); Group 3) treatment with EGF, KGF, and Noggin (EKN). […] Data shown are representatives of results obtained in two independent experiments. […] FIG. 17B: Quantification of PDX1 (orange gate) and NKX6.1 (blue gate) protein expressing cells in individual conditions after 9.5 days of differentiation.
# Suspension-based differentiations were carried out as follows. Briefly, confluent cultures were dissociated into single cell suspension by incubation with TrypLE (Gibco). […] To induce definitive endoderm differentiation, aggregates were collected 24 hours later in a 50 ml falcon tube, allowed to settle by gravity, washed once with PBS and re-suspended in d1 media (RPMI (Gibco) containing 0.2% FBS, 1:5000 ITS (Gibco), 100 ng/ml Activin A, and 50 ng/ml WNT3a (R&D systems)). Clusters from 3 wells were combined into 2 wells at this point and distributed into fresh low-attachment plates in 5.5 ml d1 media. Media thereafter was changed daily, by removing either 4.5 ml media (at the end of d1) or 5.5 ml media the following days and adding back 5.5 ml fresh media until day 9. After day 9, only 5 ml of media was removed and added daily.
# Briefly, spheres were collected and allowed to settle by gravity. Clusters were washed once in PBS and dissociated by gentle pipetting after 12-15 minutes incubation in Accumax (Innovative Cell Technologies). For sorting, cell suspensions were filtered and re-suspended in FACS buffer consisting of phosphate-buffered saline (PBS) (UCSF cell culture facility) containing 2 mM EDTA (Ambion) and 1% BSA (Sigma). Dead cells were excluded by DAPI (Sigma) staining Cell sorting was performed on a FACS Aria II (BD Bioscience). […]
# Axl = biological target: T1, Axl (Homo sapiens, UniProt P30530); details: 1 μM; cited from earlier work
# T1 sequence (P30530 26-894): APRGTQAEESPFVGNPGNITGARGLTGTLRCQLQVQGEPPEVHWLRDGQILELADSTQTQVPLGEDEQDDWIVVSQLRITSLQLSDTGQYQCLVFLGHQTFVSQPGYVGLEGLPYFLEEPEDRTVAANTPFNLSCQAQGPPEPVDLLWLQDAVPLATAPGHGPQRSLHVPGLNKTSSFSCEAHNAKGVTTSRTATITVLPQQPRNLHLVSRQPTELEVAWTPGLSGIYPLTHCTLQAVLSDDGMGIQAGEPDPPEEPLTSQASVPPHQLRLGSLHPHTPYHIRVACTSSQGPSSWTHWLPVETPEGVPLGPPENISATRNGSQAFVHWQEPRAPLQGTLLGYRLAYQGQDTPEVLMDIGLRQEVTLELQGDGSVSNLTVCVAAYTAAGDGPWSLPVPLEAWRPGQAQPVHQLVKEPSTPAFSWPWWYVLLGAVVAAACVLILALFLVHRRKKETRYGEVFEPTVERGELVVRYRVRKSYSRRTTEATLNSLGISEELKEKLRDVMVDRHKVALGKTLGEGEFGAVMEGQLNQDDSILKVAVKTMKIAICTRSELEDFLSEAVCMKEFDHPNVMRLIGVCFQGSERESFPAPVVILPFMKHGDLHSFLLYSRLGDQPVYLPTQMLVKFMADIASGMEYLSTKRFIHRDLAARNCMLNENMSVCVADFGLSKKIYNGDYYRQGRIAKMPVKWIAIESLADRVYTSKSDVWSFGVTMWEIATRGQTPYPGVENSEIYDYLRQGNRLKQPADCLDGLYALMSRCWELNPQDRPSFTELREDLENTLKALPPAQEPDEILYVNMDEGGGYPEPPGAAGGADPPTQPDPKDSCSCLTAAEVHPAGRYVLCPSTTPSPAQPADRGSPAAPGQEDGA
# SAPK2/p38 = SAPK2/p38 (Homo sapiens, UniProt Q16539); details: cited from earlier work
# Chain of SAPK2/p38 (Q16539 whole entry): as the sequence (Q16539 whole entry) above
compound,measurement,setting,value
"Cc1cccc(-c2nn(C(=S)Nc3ccccc3)cc2-c2ccnc3ccccc23)n1 [A83-01, 3-(6-Methyl-2-pyridinyl)-N-phenyl-4-(4-quinolinyl)-1H-pyrazole-1-carbothioamide]",screen result: increase of Pdx1 and/or Nkx6.1 expression,[1],Confirmed hits
"COC(=O)C1=C(C)NC(C)=C([N+](=O)[O-])C1c1ccccc1C(F)(F)F (stereo not drawn) [BayK-8644, 3-pyridinecarboxylic acid, 1,4-dihydro-2,6-dimethyl-5-nitro-4-(2-(trifluoromethyl)phenyl), methyl ester]","percentage of C-peptide positive cells, individual supplementation",[2],effective in increasing
same,number of C-peptide positive cells co-expressing PDX1 and NKX6.1,[3],increased
same,expression of the INSULIN gene (mRNA),"[3]; day 21, compared to DMSO controls",promoted expression
"Cc1cccc(-c2n[nH]cc2-c2ccc3ncccc3n2)n1 [ALK5 inhibitor II, 2-(3-(6-methylpyridine-2-yl)-1H-pyrazol-4-yl)-1,5-naphthyridine]",IC50,p38 MAPK,> 16000 nM
2-Phospho-L-ascorbic acid trisodium salt [pVc],screen result: increase of Pdx1 and/or Nkx6.1 expression,[1],Confirmed hits
same,number of Pdx1+/Nkx6.1+ colonies,[4],~4 fold
same,numbers of Sox17 and Foxa2 single positive and double positive cells,[5],no significant influence
same,number of insulin+/Pdx1+ double-positive cells,[6],significantly increased
Cn1cnc(-c2cc3nccc(Oc4ccc(NC(=S)NC(=O)Cc5ccccc5)cc4F)c3s2)c1 [MGCD-265],tumor growth and c-Met signaling,[7],inhibits tumor growth and c-Met signaling
C[C@H](NC(=O)Cc1cc(F)cc(F)c1)C(=O)N[C@H]1N=C(c2ccccc2)c2ccccc2N(C)C1=O [Compound E],IC50,γ-secretase,0.3 nM
same,effect on presenilase activity,presenilase,only weakly affects
same,"percentage of C-peptide positive cells, individual supplementation",[2],effective in increasing
"Nc1ccccc1NC(=O)CCCCCCC(=O)Nc1ccccc1 [BML-210, N1-(2-aminophenyl)-N8-phenyl-octanediamide]",IC50,[8],~80000 nM
"Nc1ccccc1NC(=O)c1ccc(CNc2nccc(-c3cccnc3)n2)cc1 [MGCD0103, N-(2-aminophenyl)-4-[[(4-pyridin-3-ylpyrimidin-2-yl)amino]methyl]benzamide]",IC50,[9],~100 nM
Cc1c(C(=O)Nc2ccc(N3C[C@@H](C)O[C@@H](C)C3)nc2)cccc1-c1ccc(OC(F)(F)F)cc1 [LDE225],screen result: increase of Pdx1 and/or Nkx6.1 expression,[1],Confirmed hits
"CC1(C)NC(=O)C(CCCCCC(=O)[C@H]2CO2)NC(=O)C2CCCN2C(=O)[C@@H](Cc2ccccc2)NC1=O (stereo partly drawn) [Chlamydocin, (3R)-3-benzyl-6,6-dimethyl-9-[6-[(2R)-oxiran-2-yl]-6-oxohexyl]-1,4,7,10-tetrazabicyclo[10.3.0]pentadecane-2,5,8,11-tetrone]",IC50,[9],~0.15 nM
COc1cc(Nc2c(C#N)cnc3cc(OCCCN4CCN(C)CC4)c(OC)cc23)c(Cl)cc1Cl [Bosutinib],IC50,[10],100 nM
"CC1NC(=O)C(C)NC(=O)C2CCCN2C(=O)C(CCCCCCC(=O)C2CO2)NC1=O [HC Toxin, (6R,9S,14aR)-3,6R-dimethyl-9S-(7-((S)-oxiran-2-yl)-7-oxoheptyl)decahydropyrrolo[1,2-a][1,4,7,10]tetraazacyclododecine-1,4,7, 10-tetranone]",IC50,[9],30 nM
"CCNC(=O)[C@H]1O[C@@H](n2cnc3c(N)ncnc32)C(O)C1O (stereo partly drawn) [NECA, 5′-N-ethylcarboxamidoadenosine]",increase of conversion rate over the basal protocol,[11]; NECA added to NaB,5 fold
same,further increase of conversion rate over the improved condition,[11]; added to NaB,2 fold
CC1=C(/C=C/C(C)=C/C=C/C(C)=C/C(=O)O)C(C)(C)CCC1 [retinoic acid],PDX1 positive progenitors,"[12]; days 6-8, alone or in combination (conditions 4, 5, 6), group 1",> 88%
"CC(/C=C/C(=O)NO)=C\[C@@H](C)C(=O)c1ccc(N(C)C)cc1 [Trichostatin A, (R,2E,4E)-6-(4-(dimethylamino)benzoyl)-N-hydroxy-4-methylhepta-2,4-dienamide]",IC50,[9],~1.8 nM
S=C(NCc1ccc2c(c1)OCO2)N1CCN(c2ncnc3c2oc2ccccc23)CC1 [Amuvatinib],tyrosine phosphorylation of AXL,Axl,inhibits tyrosine phosphorylation of AXL
"C[S+]([O-])c1ccc(-c2nc(-c3ccc(F)cc3)c(-c3ccncc3)[nH]2)cc1 (stereo not drawn) [SB203580, 4-(4-fluorophenyl)-2-(4-methylsulfinylphenyl)-5-(4-pyridyl)-1H-imidazole]",number of insulin+/Pdx1+ double-positive cells,[6],significantly increased
"NC(=O)c1ccc(-c2nc(-c3ccc4c(c3)OCCO4)c(-c3ccccn3)[nH]2)cc1 [D 4476, 4-[4-(2,3-Dihydro-1,4-benzodioxin-6-yl)-5-(2-pyridinyl)-IH-imidazol-2-yl]benzamide]",selectivity over SAPK2/p38,SAPK2/p38,greater than 20 fold
CC1=C2C[C@H]3[C@@H](CC=C4C[C@@H](O)CC[C@@]43C)[C@@H]2CC[C@]12O[C@@H]1C[C@H](C)CN[C@H]1[C@H]2C [Cyclopamine],generation of PDX1+ cells over base media alone,"[12]; alone, conditions 2 and 3",did not result in enhanced generation
Nc1ccccc1NC(=O)c1ccc(CNC(=O)OCc2cccnc2)cc1 [MS-27-275],IC50,[9],100 to 1000 nM
COc1cc2nc(N3CCCN(C)CC3)nc(NC3CCN(Cc4ccccc4)CC3)c2cc1OC [Bix-01294],number of Pdx1+/Nkx6.1+ colonies,[4],about 3 fold
same,numbers of Sox17 and Foxa2 single positive and double positive cells,[5],no significant influence
